Measured values taken from PMC6364417, “Kinase inhibitor library screening identifies synergistic drug combinations effective in sensitive and resistant melanoma cells” (Journal of Experimental & Clinical Cancer Research : CR, 2019).

Tests used:
Assay in all cases: Kinase inhibitor library screening, PrestoBlue cell viability, 1 or 10 μM, 72 h
501Mel cells (parental) = details: 501Mel Parental, in %
Outline: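 Readout: PrestoBlue signal on a monochromator plate reader, given as percent viability relative to untreated controls. Parental and drug-resistant (Vemurafenib XP, Dabrafenib GP) sublines were tested; at least duplicates per line.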

[1] = tested on: 501Mel-GP cells (Dabrafenib-resistant); details: 501Mel GP, in %
[2] = tested on: 501Mel-XP cells (Vemurafenib-resistant); details: 501Mel XP, in %
A375 cells (parental) = details: A375 Parental; for cell viability, A375 Parental, 1μΜ / cell viability, A375 Parental, 10μΜ / cell viability (kinase inhibitor library screening): in %
[3] = tested on: A375-GP cells (Dabrafenib-resistant); details: A375 GP
[4] = tested on: A375-XP cells (Vemurafenib-resistant); details: A375 XP
IGR37 cells (parental) = details: IGR37 Parental, in %
[5] = tested on: IGR37-GP cells (Dabrafenib-resistant); details: IGR37 GP
[6] = tested on: IGR37-XP cells (Vemurafenib-resistant); details: IGR37 XP

Structure (SMILES): Nc1cccc(-c2cc3c(Oc4cccc(O)c4)ncnc3[nH]2)c1 [TWS119]
- cell viability, 501Mel Parental, 1μΜ (501Mel cells (parental); 1μΜ, 72 h): 90.4
- cell viability, 501Mel Parental, 10μΜ (501Mel cells (parental); 10μΜ, 72 h): 35.3
- cell viability, 501Mel GP, 10μΜ ([1]; 10μΜ, 72 h): 40.8
- cell viability, 501Mel XP, 1μΜ ([2]; 1μΜ, 72 h): 95.3
- cell viability, 501Mel XP, 10μΜ ([2]; 10μΜ, 72 h): 26.6
- cell viability, A375 Parental, 1μΜ (A375 cells (parental); 1μΜ, 72 h): 93.6
- cell viability, A375 Parental, 10μΜ (A375 cells (parental); 10μΜ, 72 h): 29.8
- cell viability, A375 GP, 1μΜ ([3]; 1μΜ, 72 h, in %): 97.7
- cell viability, A375 GP, 10μΜ ([3]; 10μΜ, 72 h, in %): 41.9
- cell viability, A375 XP, 1μΜ ([4]; 1μΜ, 72 h, in %): 96.8
- cell viability, A375 XP, 10μΜ ([4]; 10μΜ, 72 h, in %): 67.4
- cell viability, IGR37 Parental, 1μΜ (IGR37 cells (parental); 1μΜ, 72 h): 100.4
- cell viability, IGR37 Parental, 10μΜ (IGR37 cells (parental); 10μΜ, 72 h): 65.2
- cell viability, IGR37 GP, 10μΜ ([5]; 10μΜ, 72 h): 61.4%
- cell viability, IGR37 GP, 1μΜ ([5]; 1μΜ, 72 h, in %): 96.5
- cell viability, IGR37 XP, 10μΜ ([6]; 10μΜ, 72 h): 33.3%
- cell viability, IGR37 XP, 1μΜ ([6]; 1μΜ, 72 h, in %): 80.5

Structure (SMILES): COc1cc2c(N3CCN(C(=O)Nc4ccc(OC(C)C)cc4)CC3)ncnc2cc1OCCCN1CCCCC1 [Tandutinib (MLN518)]
- cell viability, 501Mel Parental, 10μΜ (501Mel cells (parental); 10μΜ, 72 h): 95.2
- cell viability, 501Mel GP, 1μΜ ([1]; 1μΜ, 72 h): 103.5
- cell viability, 501Mel GP, 10μΜ ([1]; 10μΜ, 72 h): 85.5
- cell viability, 501Mel XP, 1μΜ ([2]; 1μΜ, 72 h): 94.1
- cell viability, 501Mel XP, 10μΜ ([2]; 10μΜ, 72 h): 71.2
- cell viability, A375 Parental, 1μΜ (A375 cells (parental); 1μΜ, 72 h): 106.1
- cell viability, A375 Parental, 10μΜ (A375 cells (parental); 10μΜ, 72 h): 89.7
- cell viability, A375 GP, 10μΜ ([3]; 10μΜ, 72 h, in %): 83.5
- cell viability, A375 XP, 1μΜ ([4]; 1μΜ, 72 h, in %): 107.0
- cell viability, IGR37 Parental, 1μΜ (IGR37 cells (parental); 1μΜ, 72 h): 100.2
- cell viability, IGR37 Parental, 10μΜ (IGR37 cells (parental); 10μΜ, 72 h): 98.5
- cell viability, IGR37 GP, 10μΜ ([5]; 10μΜ, 72 h): 91.4%
- cell viability, IGR37 GP, 1μΜ ([5]; 1μΜ, 72 h, in %): 95.6
- cell viability, IGR37 XP, 10μΜ ([6]; 10μΜ, 72 h): 43.4%
- cell viability, IGR37 XP, 1μΜ ([6]; 1μΜ, 72 h, in %): 103.1

Structure (SMILES): CNC(=O)c1cc(COc2nnc(Nc3ccc(Cl)cc3)c3ccoc23)ccn1 [Telatinib (BAY 57-9352)]
- cell viability (kinase inhibitor library screening) (501Mel cells (parental); 1μΜ): 96.8
- cell viability (kinase inhibitor library screening) (501Mel cells (parental); 10μΜ): 90.0
- cell viability (kinase inhibitor library screening) ([1]; 1μΜ): 99.0
- cell viability (kinase inhibitor library screening) ([1]; 10μΜ): 76.1
- cell viability (kinase inhibitor library screening) ([2]; 10μΜ): 68.9
- cell viability (kinase inhibitor library screening) (A375 cells (parental); 1μΜ): 99.4
- cell viability (kinase inhibitor library screening) (A375 cells (parental); 10μΜ): 95.9
- cell viability (kinase inhibitor library screening) ([3]; 1μΜ, in %): 98.3
- cell viability (kinase inhibitor library screening) ([3]; 10μΜ, in %): 92.0
- cell viability (kinase inhibitor library screening) ([4]; 1μΜ, in %): 96.6
- cell viability (kinase inhibitor library screening) ([4]; 10μΜ, in %): 95.7
- cell viability (kinase inhibitor library screening) (IGR37 cells (parental); 1μΜ): 99.2
- cell viability (kinase inhibitor library screening) (IGR37 cells (parental); 10μΜ): 97.3
- cell viability (kinase inhibitor library screening) ([5]; 1μΜ, in %): 94.5
- cell viability (kinase inhibitor library screening) ([5]; 10μΜ, in %): 88.0
- cell viability (kinase inhibitor library screening) ([6]; 1μΜ, in %): 98.1
- cell viability (kinase inhibitor library screening) ([6]; 10μΜ, in %): 70.8

Structure (SMILES): CO[C@H]1C[C@@H]2CC[C@@H](C)[C@@](O)(O2)C(=O)C(=O)N2CCCC[C@H]2C(=O)O[C@H]([C@H](C)C[C@@H]2CC[C@@H](OC(=O)C(C)(CO)CO)[C@H](OC)C2)CC(=O)[C@H](C)/C=C(\C)[C@@H](O)[C@@H](OC)C(=O)[C@H](C)C[C@H](C)/C=C/C=C/C=C/1C [Temsirolimus (Torisel)]
- Cell viability in kinase inhibitor library screening, 501Mel Parental, 1μΜ (501Mel cells (parental); 1μΜ, 72 h): 83.5
- Cell viability in kinase inhibitor library screening, 501Mel Parental, 10μΜ (501Mel cells (parental); 10μΜ, 72 h): 79.5
- Cell viability in kinase inhibitor library screening, 501Mel GP, 1μΜ ([1]; 1μΜ, 72 h): 69.5
- Cell viability in kinase inhibitor library screening, 501Mel GP, 10μΜ ([1]; 10μΜ, 72 h): 60.0
- Cell viability in kinase inhibitor library screening, 501Mel XP, 1μΜ ([2]; 1μΜ, 72 h): 55.1
- Cell viability in kinase inhibitor library screening, 501Mel XP, 10μΜ ([2]; 10μΜ, 72 h): 41.2
- Cell viability in kinase inhibitor library screening, A375 Parental, 10μΜ (A375 cells (parental); 10μΜ, 72 h): 73.5
- Cell viability in kinase inhibitor library screening, A375 Parental, 1μΜ (A375 cells (parental); 1μΜ, 72 h): 78.4
- Cell viability in kinase inhibitor library screening, A375 GP, 1μΜ ([3]; 1μΜ, 72 h): 81.2
- Cell viability in kinase inhibitor library screening, A375 GP, 10μΜ ([3]; 10μΜ, 72 h): 73.7
- Cell viability in kinase inhibitor library screening, A375 XP, 1μΜ ([4]; 1μΜ, 72 h): 81.1
- Cell viability in kinase inhibitor library screening, A375 XP, 10μΜ ([4]; 10μΜ, 72 h): 78.8
- Cell viability in kinase inhibitor library screening, IGR37 Parental, 1μΜ (IGR37 cells (parental); 1μΜ, 72 h): 79.0
- Cell viability in kinase inhibitor library screening, IGR37 Parental, 10μΜ (IGR37 cells (parental); 10μΜ, 72 h): 82.7
- Cell viability in kinase inhibitor library screening, IGR37 GP, 10μΜ ([5]; 10μΜ, 72 h): 41.7%
- Cell viability in kinase inhibitor library screening, IGR37 GP, 1μΜ ([5]; 1μΜ, 72 h, in %): 91.9
- Cell viability in kinase inhibitor library screening, IGR37 XP, 10μΜ ([6]; 10μΜ, 72 h): 5.5%
- Cell viability in kinase inhibitor library screening, IGR37 XP, 1μΜ ([6]; 1μΜ, 72 h, in %): 96.0

Structure (SMILES): O=C(NCc1ccccc1)c1csc(Nc2ccncn2)n1 [Thiazovivin]
- cell viability (kinase inhibitor library screening) (501Mel cells (parental); 1μΜ): 107.2
- cell viability (kinase inhibitor library screening) (501Mel cells (parental); 10μΜ): 76.8
- cell viability (kinase inhibitor library screening) ([1]; 1μΜ): 104.3
- cell viability (kinase inhibitor library screening) ([1]; 10μΜ): 43.8
- cell viability (kinase inhibitor library screening) ([2]; 10μΜ): 28.9
- cell viability (kinase inhibitor library screening) (A375 cells (parental); 1μΜ): 103.7
- cell viability (kinase inhibitor library screening) (A375 cells (parental); 10μΜ): 81.8
- cell viability (kinase inhibitor library screening) ([3]; 1μΜ, in %): 96.7
- cell viability (kinase inhibitor library screening) ([3]; 10μΜ, in %): 87.9
- cell viability (kinase inhibitor library screening) ([4]; 10μΜ, in %): 107.7
- cell viability (kinase inhibitor library screening) (IGR37 cells (parental); 1μΜ): 97.5
- cell viability (kinase inhibitor library screening) (IGR37 cells (parental); 10μΜ): 89.5
- cell viability (kinase inhibitor library screening) ([5]; 1μΜ, in %): 92.4
- cell viability (kinase inhibitor library screening) ([5]; 10μΜ, in %): 93.5
- cell viability (kinase inhibitor library screening) ([6]; 1μΜ, in %): 98.5
- cell viability (kinase inhibitor library screening) ([6]; 10μΜ, in %): 87.0
